According to ChEMBL document CHEMBL1201862, “PubChem BioAssay data set” (2004):
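96-well plates; 48 h exposure; 5 concentrations. Endpoints by linear interpolation between flanking doses. Not reached: highest tested concentration assigned. At the GI50, growth is halved.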 The source made the active and inactive calls. Cut-off read from the data, not from the text of the source: active = GI50 up to about 1.1 µM and inactive = higher.

Columns and labels:
Experiment in all cases: NCI tumour cell line growth inhibition, 48 h
HOP-92 = test system: HOP-92
TK-10 = test system: TK-10
OVCAR-4 = test system: OVCAR-4
ACHN = test system: ACHN
A549 = test system: A549
NCI-H226 = test system: NCI-H226
PC-3 = test system: PC-3
IGROV-1 = test system: IGROV-1
HCT-116 = test system: HCT-116
NCI-H23 = test system: NCI-H23
SW-620 = test system: SW-620
OVCAR-5 = test system: OVCAR-5
KM12 = test system: KM12
MDA-MB-435 = test system: MDA-MB-435
HT-29 = test system: HT-29
SK-MEL-28 = test system: SK-MEL-28
MDA-MB-231 = test system: MDA-MB-231
EKVX = test system: EKVX
RXF 393 = test system: RXF 393
SF-268 = test system: SF-268
NCI/ADR-RES = test system: NCI/ADR-RES
DU-145 = test system: DU-145
SNB-75 = test system: SNB-75
SNB-19 = test system: SNB-19
COLO 205 = test system: COLO 205
CAKI-1 = test system: CAKI-1
SF-295 = test system: SF-295
OVCAR-3 = test system: OVCAR-3
SN12C = test system: SN12C
UO-31 = test system: UO-31
U-251 = test system: U-251
HCT-15 = test system: HCT-15
SK-MEL-5 = test system: SK-MEL-5
M14 = test system: M14
SF-539 = test system: SF-539
OVCAR-8 = test system: OVCAR-8
UACC-257 = test system: UACC-257
NCI-H460 = test system: NCI-H460
UACC-62 = test system: UACC-62
HOP-62 = test system: HOP-62
MDA-N = test system: MDA-N
A498 = test system: A498
HCC 2998 = test system: HCC 2998
786-0 = test system: 786-0
LOX IMVI = test system: LOX IMVI
Hs-578T = test system: Hs-578T
RPMI-8226 = test system: RPMI-8226
K562 = test system: K562
CCRF-CEM = test system: CCRF-CEM
MOLT-4 = test system: MOLT-4
Malme-3M = test system: Malme-3M
NCI-H522 = test system: NCI-H522
SK-MEL-2 = test system: SK-MEL-2
HL-60 = test system: HL-60
SK-OV-3 = test system: SK-OV-3
SR = test system: SR

Question: Which results are given for `CCC1(c2ccc(N3C(=O)c4ccccc4C3=O)cc2)CCC(=O)NC1=O` (centres undefined)?
Answer: GI50 (HOP-92): > 10 µM (inactive); GI50 (TK-10): > 10 µM (inactive); GI50 (OVCAR-4): > 10 µM (inactive); GI50 (ACHN): > 10 µM (inactive); GI50 (A549): > 10 µM (inactive); GI50 (NCI-H226): > 10 µM (inactive); GI50 (PC-3): > 10 µM (inactive); GI50 (IGROV-1): > 10 µM (inactive); GI50 (HCT-116): > 10 µM (inactive); GI50 (NCI-H23): > 10 µM (inactive); GI50 (SW-620): > 10 µM (inactive); GI50 (OVCAR-5): > 10 µM (inactive); GI50 (KM12): > 10 µM (inactive); GI50 (MDA-MB-435): > 10 µM (inactive); GI50 (HT-29): > 10 µM (inactive); GI50 (SK-MEL-28): > 10 µM (inactive); GI50 (MDA-MB-231): > 10 µM (inactive); GI50 (EKVX): > 10 µM (inactive); GI50 (RXF 393): > 10 µM (inactive); GI50 (SF-268): > 10 µM (inactive); GI50 (NCI/ADR-RES): > 10 µM (inactive); GI50 (DU-145): > 10 µM (inactive); GI50 (SNB-75): > 10 µM (inactive); GI50 (SNB-19): > 10 µM (inactive); GI50 (COLO 205): > 10 µM (inactive); GI50 (CAKI-1): > 10 µM (inactive); GI50 (SF-295): > 10 µM (inactive); GI50 (OVCAR-3): > 10 µM (inactive); GI50 (SN12C): > 10 µM (inactive); GI50 (UO-31): > 10 µM (inactive); GI50 (U-251): > 10 µM (inactive); GI50 (HCT-15): > 10 µM; GI50 (SK-MEL-5): > 10 µM (inactive); GI50 (M14): > 10 µM (inactive); GI50 (SF-539): > 10 µM (inactive); GI50 (OVCAR-8): > 10 µM (inactive)

Question: For `COc1ccc2c(ccc3c(C(=O)NCCN(C)CCNC(=O)c4cn(C)c5c4ccc4cc(OC)ccc45)cn(C)c32)c1`, which GI50 (HOP-92) is on record?
Answer: 2.61 µM (inactive)

Question: What about the GI50 (OVCAR-4) of the same molecule?
Answer: 1.56 µM (inactive)

Question: What about the GI50 (UACC-257) of the same molecule?
Answer: 1.58 µM (inactive)

Question: And the GI50 (ACHN)?
Answer: 1.72 µM (inactive)

Question: What about the GI50 (A549) of the same molecule?
Answer: 1.79 µM (inactive)

Question: What about the GI50 (NCI-H226) of the same molecule?
Answer: 0.628 µM (active)

Question: And the GI50 (PC-3)?
Answer: 1.51 µM (inactive)

Question: And the GI50 (IGROV-1)?
Answer: 1.02 µM (active)

Question: What about the GI50 (HCT-116) of the same molecule?
Answer: 1.79 µM (inactive)

Question: And the GI50 (NCI-H23)?
Answer: 1.32 µM (inactive)

Question: What about the GI50 (SW-620) of the same molecule?
Answer: 2.18 µM (inactive)

Question: What about the GI50 (KM12) of the same molecule?
Answer: 1.66 µM (inactive)

Question: What about the GI50 (MDA-MB-435) of the same molecule?
Answer: 2.38 µM (inactive)

Question: What about the GI50 (HT-29) of the same molecule?
Answer: 1.4 µM (inactive)

Question: What about the GI50 (SK-MEL-28) of the same molecule?
Answer: 1.79 µM (inactive)

Question: What about the GI50 (NCI-H460) of the same molecule?
Answer: 1.45 µM (inactive)

Question: And the GI50 (UACC-62)?
Answer: 1.84 µM (inactive)

Question: And the GI50 (EKVX)?
Answer: 1.3 µM (inactive)

Question: What about the GI50 (HOP-62) of the same molecule?
Answer: 1.44 µM (inactive)

Question: What about the GI50 (RXF 393) of the same molecule?
Answer: 1.4 µM (inactive)

Question: And the GI50 (MDA-N)?
Answer: 1.57 µM (inactive)

Question: And the GI50 (SF-268)?
Answer: 1.95 µM (inactive)

Question: And the GI50 (NCI/ADR-RES)?
Answer: 1.42 µM (inactive)

Question: And the GI50 (DU-145)?
Answer: 1.73 µM (inactive)

Question: What about the GI50 (A498) of the same molecule?
Answer: 20 µM (inactive)

Question: And the GI50 (SNB-19)?
Answer: 1.95 µM (inactive)

Question: And the GI50 (COLO 205)?
Answer: 2.01 µM (inactive)

Question: And the GI50 (CAKI-1)?
Answer: 1.62 µM (inactive)

Question: What about the GI50 (SF-295) of the same molecule?
Answer: 1.85 µM (inactive)

Question: And the GI50 (OVCAR-3)?
Answer: 1.51 µM (inactive)

Question: What about the GI50 (HCC 2998) of the same molecule?
Answer: 1.47 µM (inactive)

Question: And the GI50 (SN12C)?
Answer: 1.49 µM (inactive)

Question: And the GI50 (UO-31)?
Answer: 1.45 µM (inactive)

Question: And the GI50 (786-0)?
Answer: 1.53 µM (inactive)

Question: What about the GI50 (U-251) of the same molecule?
Answer: 3.16 µM (inactive)

Question: And the GI50 (LOX IMVI)?
Answer: 2.15 µM (inactive)

Question: What about the GI50 (Hs-578T) of the same molecule?
Answer: 1.95 µM (inactive)

Question: And the GI50 (HCT-15)?
Answer: 1.26 µM

Question: And the GI50 (SK-MEL-5)?
Answer: 1.63 µM (inactive)

Question: And the GI50 (M14)?
Answer: 1.64 µM (inactive)

Question: For `O=S(=O)(O)c1cc(O)c(/N=N/c2ccc(O)cc2O)c2ccccc12`, which GI50 (HOP-92) is on record?
Answer: > 100 µM (inactive)

Question: And the GI50 (TK-10)?
Answer: > 100 µM (inactive)

Question: And the GI50 (OVCAR-4)?
Answer: > 100 µM (inactive)

Question: And the GI50 (UACC-257)?
Answer: > 100 µM (inactive)

Question: And the GI50 (ACHN)?
Answer: > 100 µM (inactive)

Question: What about the GI50 (RPMI-8226) of the same molecule?
Answer: > 100 µM (inactive)

Question: And the GI50 (A549)?
Answer: 59.3 µM (inactive)

Question: What about the GI50 (NCI-H226) of the same molecule?
Answer: 3.17 µM (inactive)

Question: And the GI50 (PC-3)?
Answer: 53.5 µM (inactive)

Question: And the GI50 (IGROV-1)?
Answer: 22.8 µM (inactive)

Question: And the GI50 (HCT-116)?
Answer: 36.6 µM (inactive)

Question: And the GI50 (SW-620)?
Answer: 86.3 µM (inactive)

Question: And the GI50 (OVCAR-5)?
Answer: 46.8 µM (inactive)

Question: What about the GI50 (KM12) of the same molecule?
Answer: 20.9 µM (inactive)

Question: What about the GI50 (MDA-MB-435) of the same molecule?
Answer: 51.3 µM (inactive)

Question: And the GI50 (HT-29)?
Answer: 8.97 µM (inactive)

Question: What about the GI50 (SK-MEL-28) of the same molecule?
Answer: > 100 µM (inactive)

Question: What about the GI50 (MDA-MB-231) of the same molecule?
Answer: 85.7 µM (inactive)

Question: What about the GI50 (K562) of the same molecule?
Answer: > 100 µM (inactive)

Question: What about the GI50 (CCRF-CEM) of the same molecule?
Answer: 40.6 µM (inactive)

Question: And the GI50 (EKVX)?
Answer: 30.9 µM (inactive)

Question: What about the GI50 (HOP-62) of the same molecule?
Answer: 66.7 µM (inactive)

Question: And the GI50 (RXF 393)?
Answer: > 100 µM (inactive)

Question: What about the GI50 (MOLT-4) of the same molecule?
Answer: 42.2 µM (inactive)

Question: And the GI50 (MDA-N)?
Answer: > 100 µM (inactive)

Question: And the GI50 (SF-268)?
Answer: 37.5 µM (inactive)

Question: What about the GI50 (NCI/ADR-RES) of the same molecule?
Answer: 38.6 µM (inactive)

Question: And the GI50 (SNB-75)?
Answer: > 100 µM (inactive)

Question: And the GI50 (SNB-19)?
Answer: > 100 µM (inactive)

Question: And the GI50 (COLO 205)?
Answer: 38.1 µM (inactive)

Question: And the GI50 (Malme-3M)?
Answer: 76.4 µM (inactive)

Question: And the GI50 (CAKI-1)?
Answer: > 100 µM (inactive)

Question: What about the GI50 (SF-295) of the same molecule?
Answer: 61.8 µM (inactive)

Question: What about the GI50 (OVCAR-3) of the same molecule?
Answer: 27.2 µM (inactive)

Question: And the GI50 (NCI-H522)?
Answer: 24.1 µM (inactive)

Question: And the GI50 (SN12C)?
Answer: > 100 µM (inactive)

Question: And the GI50 (786-0)?
Answer: > 100 µM (inactive)

Question: What about the GI50 (U-251) of the same molecule?
Answer: > 100 µM (inactive)

Question: What about the GI50 (SK-MEL-2) of the same molecule?
Answer: > 100 µM (inactive)

Question: What about the GI50 (HL-60) of the same molecule?
Answer: 80.5 µM (inactive)

Question: What about the GI50 (SK-OV-3) of the same molecule?
Answer: 49.1 µM (inactive)

Question: And the GI50 (LOX IMVI)?
Answer: 53.1 µM (inactive)

Question: What about the GI50 (SR) of the same molecule?
Answer: > 100 µM (inactive)

Question: What about the GI50 (Hs-578T) of the same molecule?
Answer: > 100 µM (inactive)

Question: And the GI50 (HCT-15)?
Answer: 64 µM

Question: And the GI50 (SK-MEL-5)?
Answer: > 100 µM (inactive)

Question: What about the GI50 (M14) of the same molecule?
Answer: 42.7 µM (inactive)

Question: And the GI50 (OVCAR-8)?
Answer: 30.8 µM (inactive)
